Literature values in patent publication US12096767B2, “Residual disinfectant composition” (Kimberly-Clark Worldwide, Inc., priority 2015, dated 2024).

Details: determined at a temperature of 25° C.

pka1: 3.18
Structure (SMILES): O=CC(=O)O [glyoxylic acid]
